Measurements as given in ChEMBL document CHEMBL1201862, “PubChem BioAssay data set” (2004).
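Briefly, cells in 96-well plates were exposed to five compound concentrations for 48 h, and endpoints were estimated by linear interpolation. GI50 is the concentration that inhibits growth by half.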 Calls of active or inactive are those of the source. No stated cut-off is given here; in the data, active = GI50 up to about 1.1 µM and inactive = higher.

What was measured:
Assay in all cases: NCI tumour cell line growth inhibition, 48 h
HCC 2998 = system: HCC 2998
NCI-H226 = system: NCI-H226
HOP-62 = system: HOP-62
COLO 205 = system: COLO 205
NCI-H522 = system: NCI-H522
OVCAR-4 = system: OVCAR-4
SNB-19 = system: SNB-19
LOX IMVI = system: LOX IMVI
HCT-116 = system: HCT-116
MDA-N = system: MDA-N
OVCAR-8 = system: OVCAR-8
SF-268 = system: SF-268
EKVX = system: EKVX
CCRF-CEM = system: CCRF-CEM
MCF7 = system: MCF7
K562 = system: K562
Malme-3M = system: Malme-3M
PC-3 = system: PC-3
SK-MEL-2 = system: SK-MEL-2
BT-549 = system: BT-549

Measured: GI50

CC(C)CC1C(=O)NCCC(NC(=O)C(Cc2ccc(OC(C)(C)C)cc2)NC(=O)OC(C)(C)C)C(=O)NC(Cc2ccccc2)C(=O)NC(Cc2ccccc2)NC1=O (centres undefined)
inactive: HCC 2998 17.3 µM | NCI-H226 5.06 µM | HOP-62 19.5 µM | COLO 205 3.32 µM | NCI-H522 11.6 µM | OVCAR-4 14.9 µM | SNB-19 14.4 µM | LOX IMVI 4.6 µM | HCT-116 4.05 µM | MDA-N 5.82 µM | OVCAR-8 5.68 µM | SF-268 4.51 µM | EKVX 4.89 µM | CCRF-CEM 4.3 µM | MCF7 17 µM | K562 3.02 µM | Malme-3M 13.6 µM | PC-3 14.5 µM

Cc1nn(-c2ccccc2)c2nc3c(c(C)nn3-c3ccccc3)c(-c3ccc(C(F)(F)F)cc3)c12
inactive: HCC 2998 > 100 µM | NCI-H226 > 100 µM | HOP-62 > 100 µM | COLO 205 > 100 µM | OVCAR-4 > 100 µM | SNB-19 96.2 µM | LOX IMVI > 100 µM | HCT-116 > 100 µM | MDA-N > 100 µM | OVCAR-8 > 100 µM | SF-268 44.7 µM | EKVX > 100 µM | CCRF-CEM > 100 µM | MCF7 > 100 µM | K562 > 100 µM | PC-3 > 100 µM

CCOC(=O)Cn1sc2ncc([N+](=O)[O-])cc2c1=O
inactive: HCC 2998 16.4 µM | NCI-H226 > 100 µM | HOP-62 15.4 µM | COLO 205 13 µM | NCI-H522 18.8 µM | OVCAR-4 18.8 µM | LOX IMVI 13.6 µM | HCT-116 17.3 µM | MDA-N 12.4 µM | OVCAR-8 16.3 µM | SF-268 24.5 µM | EKVX 27.9 µM | CCRF-CEM 2.07 µM | SK-MEL-2 22.2 µM | MCF7 18.1 µM | K562 2.84 µM | Malme-3M 17.9 µM | PC-3 14.8 µM

Nc1nc(S)nc(C(=O)Nc2nccs2)c1-c1ccccc1
inactive: HCC 2998 > 100 µM | NCI-H226 > 100 µM | HOP-62 > 100 µM | COLO 205 > 100 µM | NCI-H522 > 100 µM | OVCAR-4 > 100 µM | SNB-19 > 100 µM | LOX IMVI > 100 µM | HCT-116 > 100 µM | OVCAR-8 > 100 µM | SF-268 > 100 µM | EKVX > 100 µM | CCRF-CEM > 100 µM | SK-MEL-2 > 100 µM | K562 > 100 µM | Malme-3M > 100 µM

O=C1/C(=N\O)C2CCC1C2 (centres undefined)
inactive: HCC 2998 > 100 µM | NCI-H226 > 100 µM | HOP-62 > 100 µM | COLO 205 > 100 µM | NCI-H522 > 100 µM | OVCAR-4 > 100 µM | SNB-19 > 100 µM | LOX IMVI > 100 µM | HCT-116 > 100 µM | OVCAR-8 > 100 µM | SF-268 > 100 µM | EKVX > 100 µM | CCRF-CEM > 100 µM | SK-MEL-2 > 100 µM | K562 > 100 µM | Malme-3M > 100 µM

COc1cc2c(oc(=O)c3c4oc([Si](C)(C)C)cc4cc(OC)c23)c2cccc(OCc3ccccc3)c12
inactive: HCC 2998 > 64.3 µM | NCI-H226 42.5 µM | HOP-62 18.8 µM | COLO 205 54.2 µM | NCI-H522 36.4 µM | OVCAR-4 33.1 µM | SNB-19 23.8 µM | LOX IMVI 44 µM | HCT-116 43.2 µM | OVCAR-8 38.5 µM | SF-268 26.5 µM | EKVX > 66.5 µM | CCRF-CEM 48.3 µM | SK-MEL-2 33.7 µM | K562 57 µM | Malme-3M 32.1 µM

c1cnc2c3[nH]cc4[nH]c5ccccc5c4c-3nc2c1
inactive: HCC 2998 52.4 µM | NCI-H226 48.3 µM | HOP-62 40.4 µM | COLO 205 54.7 µM | NCI-H522 > 100 µM | OVCAR-4 44 µM | SNB-19 > 100 µM | LOX IMVI 52.5 µM | HCT-116 44.7 µM | OVCAR-8 45.1 µM | SF-268 84.5 µM | EKVX > 100 µM | CCRF-CEM 24.2 µM | SK-MEL-2 30.7 µM | K562 36.5 µM | Malme-3M 28.4 µM

N#Cc1c(N)c2c(c(-c3ccccc3)c1-c1ccccc1)C(=O)N(NC(=S)Nc1ccccc1)C2=O
inactive: HCC 2998 > 100 µM | NCI-H226 > 100 µM | COLO 205 75.2 µM | NCI-H522 57.3 µM | OVCAR-4 51.1 µM | SNB-19 > 100 µM | LOX IMVI 90.2 µM | HCT-116 56.1 µM | BT-549 89.5 µM | OVCAR-8 88.7 µM | SF-268 > 100 µM | EKVX > 100 µM | CCRF-CEM 51.8 µM | SK-MEL-2 > 100 µM | MCF7 60.3 µM | K562 88.7 µM | Malme-3M > 100 µM | PC-3 30.5 µM
